For 40 compounds, Ki results are on record in patent US20080293727A1, “Novel sulfonamide inhibitors of aspartyl protease” (priority 1992, published 2008).

Bounds are passed on as bounds.

The test deals with HIV-1 protease (Human immunodeficiency virus type 1 group M subtype B, UniProt P04585). Nature of the test: Inhibition constants against HIV-1 protease (method of Pennington et al.). It is filed as biochemical. The note with it: HIV-1 protease; read-out: Ki value. From the text:
We measured the inhibition constants of the compounds listed in Table VII against HIV-1 protease using the above-cited method of Pennington et al.

Turning to `C=CCOC(=O)N[C@@H](Cc1ccccc1)[C@H](O)CN(CC(C)C)S(=O)(=O)c1ccc(F)cc1` [Compound 122], the Ki worked out at 1.2 nM. The value for `O=C(N[C@@H](Cc1ccccc1)[C@H](O)CN(CC1CCCC1)S(=O)(=O)c1ccc(Cl)cc1)O[C@H]1CCOC1` [Compound 116, 4-Chloro-N-cyclopentylmethyl-N-((2 syn,3S)-2-hydroxy-4-phenyl-3-((S)-tetrahydrofuran-3-yloxycarbonylamino)-butyl)-benzenesulfonamide] was < 0.1 nM. The value for `COC(=O)N[C@@H](Cc1ccccc1)[C@H](O)CN(CC(C)C)S(=O)(=O)c1ccc(Cl)c(Cl)c1` [Compound 103] was 4.5 nM; that for `O=C(N[C@@H](Cc1ccccc1)[C@H](O)CN(CC1CCCC1)S(=O)(=O)c1ccccc1)O[C@H]1CCOC1` [Compound 148, N-Cyclopentylmethyl-N-((2 syn,3S)-2-hydroxy-4-phenyl-3-((S)-tetrahydrofuran-3-yloxycarbonylamino)-butyl)-benzenesulfonamide] was 0.2 nM. Turning to `Nc1ccc(S(=O)(=O)N(CC2CCCC2)C[C@@H](O)[C@H](Cc2ccccc2)NC(=O)O[C@H]2CCOC2)cc1` [Compound 171, 4-Amino-N-cyclopentylmethyl-N-((2 syn,3S)-2-hydroxy-4-phenyl-3-((S)-tetrahydrofuran-3-yloxycarbonylamino)-butyl)-benzenesulfonamide], the Ki came out at 0.2 nM. With `O=C(N[C@@H](Cc1ccccc1)[C@H](O)CN(CC1CCCC1)S(=O)(=O)c1ccc(Cl)cc1)OCc1cccnc1` [Compound 118] the figure was < 0.1 nM. `CC(C)CN(C[C@@H](O)[C@H](Cc1ccccc1)NC(=O)O[C@H]1CCOC1)S(=O)(=O)c1ccc(-c2ccon2)s1` [Compound 145, 5-Isoxazol-3-yl-thiophene-2-sulfonic acid ((2 syn,3S)-2-hydroxy-4-phenyl-3-((S)-tetrahydrofuran-3-yloxycarbonylamino)-butyl)-isobutyl-amide]: the inhibition constant Ki came out at 1.4 nM.

Turning to `CC(C)CN(C[C@@H](O)[C@H](Cc1ccccc1)NC(=O)O[C@H]1CCOC1)S(=O)(=O)c1ccc(F)cc1` [Compound 35, 4-Fluoro-N-((2 syn,3S)-2-hydroxy-4-phenyl-3-((S)-tetrahydrofuran-3-yloxycarbonylamino)-butyl)-N-isobutyl-benzenesulfonamide], the Ki was found to be 4 nM. With `C=C(C)CN(C[C@@H](O)[C@H](Cc1ccccc1)NC(=O)O[C@H]1CCOC1)S(=O)(=O)c1ccc(F)cc1` [Compound 135] the figure was 2.7 nM; with `CC(=O)Nc1ccc(S(=O)(=O)N(CC2CCCO2)CC(O)C(Cc2ccccc2)NC(=O)OC2CCOC2)cc1` (stereo not shown) [Compound 133], 24 nM. With `CC(C)CN(C[C@@H](O)[C@H](Cc1ccccc1)NC(=O)O[C@H]1CCOC1)S(=O)(=O)N(C)C` [Compound 69] the figure was 42 nM.

With `CC(=O)Nc1ccc(S(=O)(=O)N(Cc2ccco2)C[C@@H](O)[C@H](Cc2ccccc2)NC(=O)O[C@H]2CCOC2)cc1` [Compound 137], the Ki amounted to 26 nM. The value for `C=C(C)CN(C[C@@H](O)[C@H](Cc1ccccc1)NC(=O)OC(C)(C)C)S(=O)(=O)c1ccc(NC(C)=O)cc1` [Compound 131] was 60 nM; that for `COc1ccc(S(=O)(=O)N(C[C@@H](O)[C@H](Cc2ccccc2)NC(=O)O[C@H]2CCOC2)CN2CCCCC2)cc1` [Compound 1013] was 1500 nM; that for `CC(C)CN(C[C@@H](O)[C@H](Cc1ccccc1)NC(=O)O[C@H]1CCOC1)S(=O)(=O)c1ccoc1` [Compound 113] was 3 nM. Consider `O=C(N[C@@H](Cc1ccccc1)[C@H](O)CN(CC1CCCC1)S(=O)(=O)c1ccc(F)cc1)OCc1cccnc1` [Compound 111], for which the Ki was found to be 0.3 nM. For `CC(C)(C)OC(=O)NC(Cc1ccccc1)C(O)CN(CC1CCCO1)S(=O)(=O)c1ccc(F)cc1` (stereo not shown) [Compound 129], the Ki worked out at 19 nM.

Turning to `CC(C)CN(C[C@@H](O)[C@H](Cc1ccccc1)NC(=O)O[C@@H](C)c1ccccc1)S(=O)(=O)c1cccc2nonc12` [Compound 56], the Ki turned out to be 60 nM. As for `CC(=O)Nc1cc(S(=O)(=O)N(CC(C)C)C[C@@H](O)[C@H](Cc2ccccc2)NC(=O)OC(C)(C)C)ccc1F` [Compound 54], the Ki was found to be 22 nM. `CCOC(=O)N[C@@H](Cc1ccccc1)[C@H](O)CN(CC(C)C)S(=O)(=O)c1ccc(F)cc1` [Compound 121]: the Ki turned out to be 2 nM.

For `CC(=O)Nc1ccc(S(=O)(=O)N(CC(C)C)C[C@@H](O)[C@H](Cc2ccccc2)NC(=O)O[C@@H]2CCOC2)cc1` [Compound 94, N-(4-(((syn)-2-Hydroxy-(S)-4-phenyl-3-((tetrahydro-furan-(R)-3-yl)-oxycarbonylamino)-butyl)-isobutyl-sulfamoyl)-phenyl)-acetamide], the Ki turned out to be 1.7 nM. With `C=CCOC(=O)N[C@@H](Cc1ccccc1)[C@H](O)CN(CC1CCCC1)S(=O)(=O)c1ccc(Cl)cc1` [Compound 117] the figure was 0.26 nM; with `COCCOC(=O)N[C@@H](Cc1ccccc1)[C@H](O)CN(CC(C)C)S(=O)(=O)c1ccc(NC(C)=O)cc1` [Compound 34], 17 nM. With `CC(=O)Nc1ccc(S(=O)(=O)N(CC(C)C)C[C@@H](O)[C@H](Cc2ccccc2)NC(=O)OC(C)C)cc1` [Compound 29] the figure was 17 nM; with `NC(=O)C[C@H](NC(=O)c1ccc2ccccc2n1)C(=O)N[C@@H](Cc1ccccc1)[C@H](O)CN(Cc1ccccc1)S(=O)(=O)c1ccc(-c2ccon2)s1` [Compound 6, (S)-N-1-(1-Benzyl-3-(benzyl-(5-isoxazol-3-yl-thiophene-2-sulfonyl)-amino)-(1S,2 syn)-1-benzyl-2-hydroxy-propyl)-2-((quinoline-2-carbonyl)-amino)-succinamide], 3 nM; with `CC(C)CN(C[C@@H](O)[C@H](Cc1ccccc1)NC(=O)O[C@H]1CCOC1)S(=O)(=O)c1ccc2nonc2c1` [Compound 66], 0.4 nM.

For the compound `NC(=O)C[C@H](NC(=O)c1ccc2ccccc2n1)C(=O)N[C@@H](Cc1ccccc1)[C@H](O)CN(Cc1ccccc1)S(=O)(=O)c1cccc2nonc12` [Compound 9, (S)-N-1-(3-((Benzo(1,2,5)oxadiazole-4-sulfonyl)-benzyl-amino)-(1S,2 syn)-1-benzyl-2-hydroxy-propyl)-2-((quinoline-2-carbonyl)-amino)-succinamide], the inhibition constant (Ki) amounted to 4 nM.

As for `CC(=O)Nc1ccc(S(=O)(=O)N(CC(C)C)C[C@@H](O)[C@H](Cc2ccccc2)NC(=O)OCCc2ccccc2)cc1` [Compound 164], the Ki stood at 130 nM. With `CC(C)CN(C[C@@H](O)[C@H](Cc1ccccc1)NC(=O)OCc1ccccc1)S(=O)(=O)c1ccc(F)cc1` [Compound 38] the figure was 1.5 nM; with `O=C1N[C@H](COC(=O)N[C@@H](Cc2ccccc2)[C@H](O)CN(CC2CCCC2)S(=O)(=O)c2ccc(Cl)cc2)CO1` [Compound 139, 4-Chloro-N-cyclopentylmethyl-N-(2-(syn)-hydroxy-3-((2-oxazolidon-4-(S)-yl-methyl)-oxycarbonylamino)-4-phenyl-butyl)-benzenesulfonamide], 1.2 nM. As to `CC(C)CN(C[C@@H](O)[C@H](Cc1ccccc1)NC(=O)O[C@H]1CCOC1)S(=O)(=O)c1ccc(O)cc1` [Compound 175], the Ki was 0.1 nM. `CC(C)CN(C[C@@H](O)[C@H](Cc1ccccc1)NC(=O)OCc1cccnc1)S(=O)(=O)c1ccc(F)cc1` [Compound 98, 4-Fluoro-N-((2 syn,3S)-2-hydroxy-4-phenyl-3-(pyridin-3-yl-methoxycarbonylamino)-butyl)-N-isobutyl-benzenesulfonamide]: the inhibition constant (Ki) amounted to 0.5 nM. With `CC(=O)Nc1ccc(S(=O)(=O)N(CC2CCCC2)C[C@@H](O)[C@H](Cc2ccccc2)NC(=O)OCc2cccnc2)cc1` [Compound 147, N-(4-(Cyclopentylmethyl-((2 syn,3S)-2-hydroxy-4-phenyl-3-(pyridin-3-yl-methoxycarbonylamino)-butyl)-sulfamoyl)-phenyl)-acetamide] the figure was 1.6 nM; with `COC(=O)N[C@@H](Cc1ccccc1)[C@H](O)CN(CC(C)C)S(=O)(=O)c1ccc(F)cc1` [Compound 104], 5.5 nM; with `O=C(N[C@@H](Cc1ccccc1)[C@H](O)CN(CC1CCCCC1)S(=O)(=O)c1ccc(F)cc1)O[C@H]1CCOC1` [Compound 159, N-Cyclohexylmethyl-4-fluoro-N-((2 syn,3S)-2-hydroxy-4-phenyl-3-((S)-tetrahydrofuran-3-yloxycarbonylamino)-butyl)-benzenesulfonamide], 0.2 nM. As to `CC(=O)Nc1cccc(S(=O)(=O)N(CC(C)C)C[C@@H](O)[C@H](Cc2ccccc2)NC(=O)O[C@H]2CCOC2)c1` [Compound 91, N-(3-(((2 syn,3S)-2-Hydroxy-4-phenyl-3-((S)-tetrahydrofuran-3-yloxycarbonylamino)-butyl)-isobutyl-sulfamoyl)-phenyl)-acetamide], the Ki is 2.5 nM. With `CC(C)CN(C[C@@H](O)[C@H](Cc1ccccc1)NC(=O)[C@@H](NC(=O)OCc1ccccn1)C(C)C)S(=O)(=O)N(C)C` [Compound 24] the figure was 32500 nM; with `CC(=O)Nc1ccc(S(=O)(=O)N(CC(C)C)CC(O)C(Cc2ccccc2)NC(=O)C(CC(N)=O)NC(=O)c2ccc3ccccc3n2)cc1` (stereo not shown) [Compound 193], 400 nM; with `C=CCOC(=O)N[C@@H](Cc1ccccc1)[C@H](O)CN(CC1CCCC1)S(=O)(=O)c1ccc(F)cc1` [Compound 114, N-((3-Allyloxycarbonylamino)-(2 syn,3S)-2-hydroxy-4-phenyl-butyl)-N-cyclopentylmethyl-4-fluoro-benzenesulfonamide], 0.35 nM. Take `CC(C)CN(C[C@@H](O)[C@H](Cc1ccccc1)NC(=O)O[C@H]1CCOC1)S(=O)(=O)c1ccc([N+](=O)[O-])cc1` [Compound 167, N-((2 syn,3S)-2-Hydroxy-4-phenyl-3-((S)-tetrahydrofuran-3-yloxycarbonylamino)-butyl)-N-isobutyl-4-nitro-benzenesulfonamide]: the Ki was determined as 0.45 nM.

By Ki is commonly meant a dissociation constant, usually derived from enzyme kinetics or from competition with a known ligand.
